The values below come from ChEMBL document CHEMBL5104131, “Pyrimidine-conjugated fluoroquinolones as new potential broad-spectrum antibacterial agents” (Bioorg Med Chem Lett, 2022).

≈ marks a conversion by molar mass, not a printed value. Calls of active or inactive are those of the source. The rule behind the calls is not given here. Bounds are passed on as bounds.

In data set [1] the test system is Staphylococcus aureus. Put plainly: Antibacterial activity against Staphylococcus aureus ATCC 25923 assessed as bacterial growth inhibition by serial dilution method. In kind it is functional.
In data set [2] the test system is Pseudomonas aeruginosa. Put plainly: Antibacterial activity against Pseudomonas aeruginosa ATCC 27853 assessed as bacterial growth inhibition by serial dilution method. Format: functional.
A further data set deals with Acinetobacter baumannii. Put plainly: Antibacterial activity against Acinetobacter baumannii assessed as bacterial growth inhibition by serial dilution method. Format: functional.
Data set [3] deals with Staphylococcus aureus. The data set is described as follows: Antibacterial activity against methicillin-resistant Staphylococcus aureus N315 assessed as bacterial growth inhibition by serial dilution method. In kind it is functional.
The test system of data set [4] is Escherichia coli. The data set is described as follows: Antibacterial activity against Escherichia coli assessed as bacterial growth inhibition by serial dilution method. Format: functional.
The next data set relates to Candida tropicalis. Put plainly: Antifungal activity against Candida tropicalis assessed as inhibition of fungal growth. Format: functional.
For data set [5], the system named is Pseudomonas aeruginosa. Put plainly: Antibacterial activity against Pseudomonas aeruginosa assessed as bacterial growth inhibition by serial dilution method. Format: functional.
Data set [6] has as its system Staphylococcus aureus. The data set is described as follows: Antibacterial activity against Staphylococcus aureus assessed as bacterial growth inhibition by serial dilution method. Format: functional.
Data set [7] relates to Enterococcus faecalis. The data set is described as follows: Antibacterial activity against Enterococcus faecalis assessed as bacterial growth inhibition by serial dilution method. In kind it is functional.
The subject of another data set is Klebsiella pneumoniae. The data set is described as follows: Antibacterial activity against Klebsiella pneumoniae assessed as bacterial growth inhibition by serial dilution method. In kind it is functional.
The subject of a further data set is Candida parapsilosis. The data set is described as follows: Antifungal activity against Candida parapsilosis ATCC 22019 assessed as inhibition of fungal growth. Conditions: Lodderomyces parapsilosis. Format: functional.
Data set [8] concerns Escherichia coli. The data set is described as follows: Antibacterial activity against Escherichia coli ATCC 25922 assessed as bacterial growth inhibition by serial dilution method. Format: functional.
Data set [9] has as its system Staphylococcus aureus. The data set is described as follows: Antibacterial activity against Staphylococcus aureus ATCC 29213 assessed as bacterial growth inhibition by serial dilution method. Format: functional.
For data set [10], the system named is Staphylococcus aureus. The data set is described as follows: Potency index, ratio of norfloxacin MIC to test compound MIC for antibacterial activity against Staphylococcus aureus ATCC 25923 assessed as bacterial growth inhibition by serial dilution method. In kind it is functional.
Data set [11] deals with Enterococcus faecalis. The data set is described as follows: Inhibition of biofilm formation in Enterococcus faecalis at 2 ug/ml incubated for 24 hrs by crystal violet staining based analysis relative to control. Format: functional.
Data set [12] relates to Staphylococcus aureus. The data set is described as follows: Potency index, ratio of norfloxacin MIC to test compound MIC for antibacterial activity against Staphylococcus aureus ATCC 29213 assessed as bacterial growth inhibition by serial dilution method. In kind it is functional.
The subject of data set [13] is Enterococcus faecalis. The data set is described as follows: Bactericidal activity against Enterococcus faecalis assessed as log reduction in bacterial colony count at 1 times MIC measured after 6 hrs. Format: functional.
Data set [14] has as its system Enterococcus faecalis. The data set is described as follows: Potency index, ratio of norfloxacin MIC to test compound MIC for antibacterial activity against Enterococcus faecalis assessed as bacterial growth inhibition by serial dilution method. Format: functional.
Data set [15] has as its system Calf thymus DNA. Put plainly: Binding affinity to calf thymus DNA assessed as DNA-compound complex formation by measuring hyperchromicity by UV-Vis spectrophotometric analysis. In kind it is tissue-based. Particulars: Bos taurus.
Data set [16] deals with Enterococcus faecalis. The data set is described as follows: Potency index, ratio of ciprofloxacin MIC to test compound MIC for antibacterial activity against Enterococcus faecalis assessed as bacterial growth inhibition by serial dilution method. Format: functional.
The nature of data set [17]: Cytotoxicity against human HaCaT cells assessed as cell viability at 12.5 ug/ml by CCK-8 assay relative to control. Format: toxicity, cell-based. Conditions: at 12.5 µg/mL, read-out: Activity. In general terms: Tetrazolium dyes change colour on reduction, which living cells bring about.
For data set [18], the system named is Calf thymus DNA. Put plainly: Binding affinity to calf thymus DNA assessed as binding constant by UV-Vis spectrophotometric analysis. Conditions: Bos taurus.
In another data set the test system is Aspergillus fumigatus. Put plainly: Antifungal activity against Aspergillus fumigatus assessed as inhibition of fungal growth. Format: functional.
Data set [19] concerns Enterococcus faecalis. Put plainly: Bactericidal activity against Enterococcus faecalis assessed as log reduction in bacterial colony count at 4 times MIC measured after 6 hrs. In kind it is functional.
A short description of data set [20]: Cytotoxicity against human HaCaT cells assessed as cell viability at 50 ug/ml by CCK-8 assay relative to control. In kind it is toxicity, cell-based. Particulars: at 50 µg/mL, read-out: Activity.
Data set [21] can be described thus: Induction of intracellular ROS accumulation in Enterococcus faecalis assessed as fold increase in fluorescence intensity at 8 times MIC by DCFH-DA dye based fluorescence assay. Format: functional.
Data set [22] relates to Calf thymus DNA. The data set is described as follows: Binding affinity to calf thymus DNA assessed as red shift in absorption peak by UV-Vis spectrophotometric analysis. Particulars: Bos taurus.
Data set [23] has as its system Calf thymus DNA. The data set is described as follows: Binding affinity to calf thymus DNA assessed as reduction in acridine orange-DNA complex formation by competitive binding assay. Particulars: Bos taurus.

As to `COc1cnc(N2CCN(c3cc4c(cc3F)c(=O)c(C(=O)O)cn4C3CC3)CC2)nc1`, the MIC with Staphylococcus aureus [1] was 8 µg/mL (≈ 18.2 µM); in the data set with Pseudomonas aeruginosa [2] it was 32 µg/mL (≈ 72.8 µM); in the data set with Acinetobacter baumannii it was 1 µg/mL (≈ 2.28 µM); in the data set with Staphylococcus aureus [3] it was 32 µg/mL (≈ 72.8 µM); with Escherichia coli [4] it was 64 µg/mL (≈ 146 µM); with Candida tropicalis, 2 µg/mL (≈ 4.55 µM). Also, the MIC with Pseudomonas aeruginosa [5] was determined as 64 µg/mL (≈ 146 µM); in the data set with Staphylococcus aureus [6] it was 256 µg/mL (≈ 583 µM); in the data set on Enterococcus faecalis [7], 32 µg/mL (≈ 72.8 µM); with Klebsiella pneumoniae, 16 µg/mL (≈ 36.4 µM); in the data set with Candida parapsilosis it was 2 µg/mL (≈ 4.55 µM); with Escherichia coli [8], 4 µg/mL (≈ 9.1 µM). Further, in the data set on Staphylococcus aureus [9], the MIC turned out to be 2 µg/mL (≈ 4.55 µM).
As for `CCn1cc(C(=O)O)c(=O)c2cc(F)c(N3CCN(c4nccc(N)n4)CC3)cc21`, the Ratio in the data set with Staphylococcus aureus [10] was determined as 4; in the data set on Staphylococcus aureus [12], 8; in the data set with Enterococcus faecalis [14], 16; in the data set with Enterococcus faecalis [16] it was 4. For the same compound, the MIC in the data set on Staphylococcus aureus [1] was 0.5 µg/mL (≈ 1.21 µM); in the data set on Pseudomonas aeruginosa [2] it was 0.5 µg/mL (≈ 1.21 µM); in the data set with Acinetobacter baumannii, 4 µg/mL (≈ 9.7 µM); with Staphylococcus aureus [3] it was 1 µg/mL (≈ 2.42 µM); in the data set on Escherichia coli [4], 4 µg/mL (≈ 9.7 µM); in the data set with Pseudomonas aeruginosa [5], 0.25 µg/mL (≈ 0.606 µM). The minimal inhibitory concentration (MIC) in the data set with Staphylococcus aureus [6] came to 1 µg/mL (≈ 2.42 µM); with Enterococcus faecalis [7], 0.25 µg/mL (≈ 0.606 µM); in the data set on Aspergillus fumigatus, 2 µg/mL (≈ 4.85 µM); in the data set on Klebsiella pneumoniae it was 0.5 µg/mL (≈ 1.21 µM); with Escherichia coli [8], 16 µg/mL (≈ 38.8 µM); in the data set with Staphylococcus aureus [9], 0.5 µg/mL (≈ 1.21 µM). This compound also registered an inhibition at 2 µg/mL with Enterococcus faecalis [11] of 53.9%. For the same compound, the “log(activity)” value with Enterococcus faecalis [13] is listed as 2.5; with Enterococcus faecalis [19], 3.5. In addition, the result in the data set on Calf thymus DNA [15], in the data set on Calf thymus DNA [22] and in the data set on Calf thymus DNA [23] was Active. For the same compound, the viability at 12.5 ug/ml in data set [17] was above 90%. The K with Calf thymus DNA [18] was 1.01 10^5L/mol. Besides, the viability at 50 ug/ml in data set [20] was determined as 70%. Further, the “fold change (FC)” value in [21] is 2.5.

Usually MIC stands for the lowest concentration found to suppress growth. What is called inhibition is how much of the control response was suppressed.
